Values after ≈ are worked out from the molar mass of the structure shown. “Also recorded” adds a separate entry of the source.
Tests used:
[1] = test system: HEK-293 cells; assay: MTT cytotoxicity assay, normal cell line HEK-293; assay type: cell-based
Protocol: (§1) Following an extensive review of the literature, we selected human breast cancer (MCF-7, MDA-MB-231) and lung cancer (A549) cell lines to evaluate the anticancer potential of the synthesized compounds, and some compounds with good anti-proliferation activity were again tested to evaluate their cytotoxic potential on A-549, MCF-7, and MDA-MB-231. The same were also tested on one non-cancerous/normal (HEK-293) cell line. All the cell lines for the required screening were developed in a suitable medium comprising 10% FBS and 2mM L-glutamine. Cancerous and non-cancerous/normal cell lines were selected for the cell proliferation and cytotoxicity assay and maintained with 5% CO2 at 37 °C in a CO2 incubator with 100% relative humidity for one complete day before the addition of experimental drugs.
(§2) MTT, a well-known colorimetric cytotoxic assay was performed to validate the cytotoxicity of the selected compounds—VI(b), VI(c), VI(e), and VI(i)—against three different human tumor cell lines [MCF-7, MDA-MB-231, A549] and a normal cell line [HEK293]. The seeding of 1 × 10^4 cells onto each well was executed in a 96-well plate in triplicate, and to keep the cells viable, overnight incubation was undertaken at 37 °C with 5% CO2 in a CO2 incubator. […] The microplate reader was set at 570 nm to measure the absorbance of each well.

[2] = test system: MDA-MB-231 cells; assay: MTT cytotoxicity assay, MDA-MB-231; assay type: cell-based; conditions: Homo sapiens, MDA-MB-231, 24 h
Protocol: as §1, §2

[3] = test system: MCF-7 cells; assay: ROS detection with DCFH-DA; assay type: cell-based, human; conditions: MCF-7, 40, 60, 80 µg/mL, vs control
From the text: ROS are commonly produced as a result of the cellular metabolic routes, and they play a key role as a secondary messenger in the healthy physiological system, but elevated quantities of ROS are the reason for various pathological conditions. To assess oxidative stress (ROS)-mediated apoptosis, DCFH-DA (2′,7′-dichlorodihydrofluorescein diacetate) dye was used as ROS transforms DCFH to DCF, producing a green fluorescence. The intensity of green fluorescence emitted is directly correlated with the amount of ROS produced by the cells in the treatment groups. Briefly, MCF-7 cells were passaged then seeded (5 × 10^4 cells /well) in a 12-well plate and exposed to all three (lower, IC50, higher) concentrations of compound VI(i); then, overnight incubation was undertaken with 5% carbon dioxide at 37 °C. To assess the generated ROS, treated cells (MCF-7) were washed with PBS. Staining was undertaken using DCFH-DA and photographed with the help of a fluorescence microscope (inverted) in the green and phase contrast channels.

[4] = test system: MCF-7 cells; assay: Apoptosis assay, annexin V/PI flow cytometry; assay type: cell-based, human; conditions: 24 h
Protocol: Qualitative analysis of different stages of apoptosis in MCF-7 cells using AO/EtBr dual staining was further quantitatively validated using annexin V/PI staining. Annexin V binds with the exposed phosphatidyl serine of apoptotic cells in a calcium-dependent manner and permits the determination of a number of cells in different stages of apoptosis. At the same time, PI binds with the nucleic acid of dead cells. In brief, cells were plated in a 6-well cell culture plate followed by exposure to lower, IC50, and higher concentrations of compound VI(i), as described in the above experiments. Following 24 h of incubation, treated cells were harvested using […] EDTA; then, annexin V/PI staining was performed, which was incubated for 30 min at 37 °C. The population of the apoptotic cells was examined by evaluating the cell suspension using a flow cytometer.

[5] = test system: MCF-7 cells; assay: Cell cycle analysis, propidium iodide flow cytometry; assay type: cell-based, human
Protocol: Apoptosis can also be determined based on the content of the DNA allocation at different stages of cell cycle distribution. The cultured MCF-7 cell line was washed, trypsinized, and seeded, followed by compound VI(i) exposure in a 6-well cell culture plate. Following this, cells were harvested using 1mM EDTA; then, to fix the cells, ice-cold ethanol was used, and overnight, cells were kept at −20 °C. Afterwards, cells were maintained at room temperature, followed by centrifugation at 3000 RPM for 7 min. Then, staining was conducted using propidium iodide, RNase A, and Triton-X in a buffer (phosphate-buffered saline). It was then analyzed using a flow cytometer.

[6] = test system: MCF-7 cells; assay: MTT cytotoxicity assay, MCF-7; assay type: cell-based; conditions: Homo sapiens, MCF7, MCF-7, 24 h
Protocol: as §1, §2

[7] = MCF-7, IC50 concentration (60 µg/mL)
[8] = MCF-7, lower concentration (40 µg/mL)
[9] = MCF-7, higher concentration (80 µg/mL)

For `COc1ccc(-c2cnn(CCCCCC(=O)NO)n2)cc1` [VI(i), N-Hydroxy-6-(4-(4-methoxyphenyl)-2H-1,2,3-triazol-2-yl)hexanamide], the “toxicity towards normal cell line” value [1] was “low toxicity; also recorded: somewhat minimal toxicity”, the IC50 [2] was > 100 µg/mL and the ROS level [3] was “significantly increased in concentration-dependent manner”. The “increment in early apoptotic cell population with respect to control” value [4, 7] was 9.58%, the “increment in late apoptotic cell population with respect to control” value [4, 7] was 12.6% and the “increment in early apoptotic cell population with respect to control” value [4, 8] was 5.61%. For the same compound, the “increment in late apoptotic cell population with respect to control” value [4, 8] was 4.14%, the “increase in cells arrested in G2/M phase compared to control” value (“increase in cells arrested in G2/M phase” for short) [5, 7] was 15.91% and the “increase in cells arrested in S phase compared to control” value (“increase in cells arrested in S phase” for short) [5, 7] was 6.9%. The “increase in cells arrested in G2/M phase” value [5, 9] was 19.35%, the “increase in cells arrested in S phase” value [5, 9] was 6.07% and the “increase in cells arrested in G2/M phase” value [5, 8] was 11.98%. The “increase in cells arrested in S phase” value [5, 8] was 5.92% and the IC50 [6] was 60 µg/mL (≈ 197 µM).

— PMC12389269, “Heteroaryl-Capped Hydroxamic Acid Derivatives with Varied Linkers: Synthesis and Anticancer Evaluation with Various Apoptosis Analyses in Breast Cancer Cells, Including Docking, Simulation, DFT, and ADMET Studies” (Pharmaceuticals, 2025)
